Measurements: US10351550B2, “Substituted quinazoline compounds and methods of use thereof” (Araxes Pharma LLC, priority 2015, dated 2019)
Marks after values point to notes of the source that are not given here.

Target: T1, KRAS G12C 1-169, his-tagged protein, GDP-loaded (Homo sapiens, UniProt P01116, G12C)
T1 construct: KRAS G12C 1-169, his-tagged protein, GDP-loaded
Test: Biochemical assay: covalent binding (% modification) to KRAS G12C by mass spectrometry
Description: Test compounds were prepared as 10 mM stock solutions in DMSO (Fisher cat# BP-231-100). KRAS G12C 1-169, his-tagged protein, GDP-loaded was diluted to 2 μm in buffer (20 mM Hepes, 150 mM NaCl, 1 mM MgCl2). Compounds were tested for activity as follows:
Compounds were diluted to 50× final test concentration in DMSO in 96-well storage plates. Compound stock solutions were vortexed before use and observed carefully for any sign of precipitation. Dilutions were as follow: • 1. For 100 μM final compound concentration, compounds were diluted to 5000 μM (5 μl 10 mM compound stock+5 μl DMSO and mixed well by pipetting. • 2. For 30 μM final compound concentration, compounds were diluted to 1500 μM (3 μl 10 mM compound stock+17 μl DMSO) and mixed well by pipetting. • 3. For 10 μM final compound concentration, compounds were diluted to 500 μM (2 μl 10 mM compound stock+38 μl DMSO) and mixed well by pipetting. 49 μl of the stock protein solution was added to each well of a 96-well PCR plate (Fisher cat#1423027). 1 μl of the diluted 50× compounds were added to appropriate wells in the PCR plate using 12-channel pipettor. Reactions were mixed carefully and thoroughly by pipetting up/down with a 200·1 multi-channel pipettor. […] 5·1 of 2% formic acid (Fisher cat# A117) in DI H2O was then added to each well followed by mixing with a pipette. The plate was then resealed with aluminum seal and stored on dry ice until analyzed as described below.
The above described assays were analyzed by mass spectrometry according to one of the following two procedures:
The MS instrument is set to positive polarity, 2 GHz resolution, and low mass (1700) mode and allowed to equilibrate for 30 minutes. The instrument is then calibrated, switched to acquisition mode and the appropriate method loaded.
After another 30 minute equilibration time, a blank batch (i.e., buffer) is run to ensure equipment is operating properly. The samples are thawed at 37° C. for 10 minutes, briefly centrifuged, and transfer to the bench top. Wells A1 and H12 are spiked with 1 uL 500 uM internal standard peptide, and the plates centrifuged at 2000×g for 5 minutes. The method is then run and masses of each individual well recorded.
The masses (for which integration data is desired) for each well are pasted into the platemap and exported from the analysis. Masses for the internal standards are exported as well. The data at 50 ppm is extracted for the +19 charge state, and identity of well A1 is assigned using the internal standard spike and integrated. Peak data is exported as a TOF list and the above steps are repeated individually, for the +20, 21, 22, 23, 24, and 25 charge states.
The masses and peak intensities of KRAS G12C protein species were measured using a Dionex RSLCnano system (Thermo Scientific) connected to a Q Exactive Plus mass spectrometer (Thermo Scientific).
[…] of sample was each loaded onto a Aeris™ 3.6 μm WIDEPORE C4 200 Å, LC Column 50×2.1 mm column maintained at 40° C. at a flow rate of 600 μl min^1 with 20% Solvent A (0.1% formic acid in H2O) and 80% Solvent B (0.1% formic acid in acetonitrile). The liquid chromatography conditions were 20% solvent B for 1 min, 20% to 60% solvent B for 1.5 min, 60% to 90% solvent for 0.5 min, 90% solvent B for 0.2 min, 90% to 20% solvent B for 0.2 min, and then equilibrated for 1.6 min before the following sample injection. The flow rate was maintained at 600 μl min^1 throughout the sample analysis.
The mass spectrometer was operated in profile mode at a resolution of 17500, 5 microscans, using 50 msec max injection time and an AGC target of 1e6, and a full mass range from 800-1850 m/z was recorded. The HCD trapping gas was optimized for maximum sensitivity for intact proteins. The ionization method was electrospray ionization, which used a spray voltage of 4 kV, sheath gas flow set to 50 au, auxiliary gas flow set to 10 au and sweep gas flow set to 1 au. […]

[1] = binding activity determined at 4 hours
[2] = binding activity determined at 6 hours
[3] = binding activity determined at 2 hours

Question: `C=CC(=O)N1CCCC(n2cnc3c(F)c(-c4c(O)cccc4F)c(Cl)cc3c2=O)C1` (stereo not shown) [Compound 1, 3-(1-acryloylpiperidin-3-yl)-6-chloro-8-fluoro-7-(2-fluoro-6-hydroxyphenyl)quinazolin-4(3H)-one] was tested. Which Binding % [1] did it give?
Answer: The Binding % was “++^† (++ indicates binding activity from 5% up to 50%)”.

Question: `C=CC(=O)NC1CC(n2cnc3c(F)c(-c4c(O)cccc4F)c(Cl)cc3c2=O)C1` (stereo not shown) [Compound 2, N-(3-(6-chloro-8-fluoro-7-(2-fluoro-6-hydroxyphenyl)-4-oxoquinazolin-3(4H)-yl)cyclobutyl)acrylamide] was tested. Which Binding % [1] did it give?
Answer: The Binding % was “++^† (++ indicates binding activity from 5% up to 50%)”.

Question: And the “covalently bind to KRAS G12C, extent (% of protein in the well covalently bound to test compound)” value (time and concentration not given)?
Answer: The value was “greater than 30%”.

Question: With `C=CC(=O)Nc1cnc2c(F)c(-c3c(O)cccc3F)c(Cl)cc2c1N1CCN(C(C)=O)CC1` [Compound 3, N-(4-(4-acetylpiperazin-1-yl)-6-chloro-8-fluoro-7-(2-fluoro-6-hydroxyphenyl)quinolin-3-yl)acrylamide] as the molecule, how does the Binding % [1] read?
Answer: Its Binding % is “++^† (++ indicates binding activity from 5% up to 50%)”.

Question: `C=CC(=O)N1CC(n2cnc3c(F)c(-c4c(O)cccc4F)c(Cl)cc3c2=O)C1` [Compound 4, 3-(1-acryloylazetidin-3-yl)-6-chloro-8-fluoro-7-(2-fluoro-6-hydroxyphenyl)quinazolin-4(3H)-one] was tested. Which Binding % [1] did it give?
Answer: The Binding % was “++^† (++ indicates binding activity from 5% up to 50%)”.

Question: How did the Binding % [2] turn out when `C=CC(=O)N1CC(n2cnc3cc(-c4c(O)cccc4F)ccc3c2=O)C1` [Compound 5, 3-(1-acryloylazetidin-3-yl)-7-(2-fluoro-6-hydroxyphenyl) quinazolin-4(3H)-one] was run?
Answer: The Binding % was “++^‡ (++ indicates binding activity from 5% up to 50%)”.

Question: What does the source list for `C=CC(=O)N1CC(n2cnc3c(F)c(-c4cc(O)ccc4Cl)c(Cl)cc3c2=O)C1` [Compound 6, 3-(1-acryloylazetidin-3-yl)-6-chloro-7-(2-chloro-5-hydroxyphenyl)-8-fluoroquinazolin-4(3H)-one]?
Answer: Binding % [3]: ++; (++ indicates binding activity from 5% up to 50%); Binding % [1]: +++^† (+++ indicates binding activity 50% or greater)

Question: Which Binding % [3] does the source give for `C=CC(=O)N1CC(n2cnc3c(F)c(-c4cc(O)cc5ccccc45)c(Cl)cc3c2=O)C1` [Compound 7, 3-(1-acryloylazetidin-3-yl)-6-chloro-8-fluoro-7-(3-hydroxynaphthalen-1-yl)quinazolin-4(3H)-one] here?
Answer: Its Binding % is “+++; (+++ indicates binding activity 50% or greater)”.

Question: And the Binding % [2]?
Answer: The Binding % was “+++^‡ (+++ indicates binding activity 50% or greater)”.

Question: With `C=CC(=O)N1CC(n2cnc3c(F)c(-c4c(C)ccc5cn[nH]c45)c(Cl)cc3c2=O)C1` [Compound 8, 3-(1-acryloylazetidin-3-yl)-6-chloro-8-fluoro-7-(6-methyl-1H-indazol-7-yl)quinazolin-4(3H)-one] as the molecule, how does the Binding % [2] read?
Answer: Its Binding % is “++^‡ (++ indicates binding activity from 5% up to 50%)”.

Question: With `C=CC(=O)N1CC(n2cnc3c(F)cc(-c4ccccc4O)cc3c2=O)C1` [Compound 9, 3-(1-acryloylazetidin-3-yl)-8-fluoro-6-(2-hydroxyphenyl) quinazolin-4(3H)-one] as the molecule, how does the Binding % [2] read?
Answer: Its Binding % is “+^‡ (+ indicates binding activity up to 5%)”.

Question: With `C=CC(=O)N1CC(n2cnc3c(Cl)c(-c4cc(O)cc5ccccc45)c(F)cc3c2=O)C1` [Compound 10, 3-(1-acryloylazetidin-3-yl)-8-chloro-6-fluoro-7-(3-hydroxynaphthalen-1-yl)quinazolin-4(3H)-one] as the molecule, how does the Binding % [3] read?
Answer: The Binding % was “+++; (+++ indicates binding activity 50% or greater)”.

Question: And the Binding % [2]?
Answer: Its Binding % is “+++^‡ (+++ indicates binding activity 50% or greater)”.

Question: How did the Binding % [3] turn out when `C=CC(=O)N1CC(n2cnc3c(Cl)c(-c4cc(O)cc5ccccc45)c(N)cc3c2=O)C1` [Compound 12, 3-(1-acryloylazetidin-3-yl)-6-amino-8-chloro-7-(3-hydroxynaphthalen-1-yl)quinazolin-4(3H)-one] was run?
Answer: Its Binding % is “++ (++ indicates binding activity from 5% up to 50%)”.

Question: Which Binding % [3] does the source give for `C=CC(=O)N1CC(n2cnc3c(Cl)c(-c4cc(O)cc5ccccc45)cc(O)c3c2=O)C1` [Compound 14, 3-(1-acryloylazetidin-3-yl)-8-chloro-5-hydroxy-7-(3-hydroxynaphthalen-1-yl)quinazolin-4(3H)-one] here?
Answer: Its Binding % is “+++ (+++ indicates binding activity 50% or greater)”.
